Assay results as given in patent US12653194B2, “Compositions and methods for promoting soil microbials for plant health and stress tolerance” (The United States of America, as represented by The …, priority 2021, dated 2026).

Tested on: soil microbials (fungi and bacteria)
Assay: Peach orchard field trial: soil fungal and bacterial abundance (16S rRNA / ITS sequencing, PCA)
Type: in vivo
Details: applied in 110 mL water within 15 cm of tree trunk plus 190 mL water, extract 34 HCE about 16x diluted (0.0625xHCE), 300,000 IJs per tree
From the text: The pheromone can be extracted with alcohol in a concentration range from about 0% to about 95%. The liquid (supernatant) may be removed and concentrated to produce a dry extract by using a stream of nitrogen, by rotary evaporation, by lyophilization, or by any equivalent means. The dry powder may be resuspended in water and centrifuged to separate insoluble debris from water-soluble pheromones. For storage the supernatant may be concentrated to dryness using a lyophilizer, a spray drier, or any equivalent means. The concentration and ratio of the pheromone mixture was evaluated for its activity on plants. […] In addition, for example, one insect host cadaver extract from Galleria mellonella (average weight of G. mellonella larvae, wax worm, is estimated to be approximately 232+/−57 mg) is diluted in 200 μL water which is physiologically relevant concentration as 1×HCE. When one insect host cadaver extract from Galleria mellonella is resuspended in 3200 μL (about 16 times dilution or 0.0625×HCE). Total 34 HCE S. carpocapsae pheromone extracts with 300,000 S. carpocapsae IJs in 110 mL of water in 15 cm soil surrounding the tree trunk. Then an additional 190 mL of water was added to the 15 cm of soil surrounding the tree trunk. […]

CCOP(=S)(OCC)Oc1nc(Cl)c(Cl)cc1Cl [Chlorpyrifos]
time for which soil microbials were promoted / soil microbial abundance increased: ≤ 2 weeks
